Test results as given in patent US3965109A, “Certain aryl amino pyridines” (priority 1971, dated 1976).
Where two headings read alike, the source gives them in different places.

What was measured:
[1] = system: Tetranychus telarius (red spider mites, adults); assay: Pest toxicity test; type: in vivo; conditions: 0.1% by weight; French bean; 3 days
[2] = system: Tetranychus telarius (red spider mites, eggs); assay: Pest toxicity test; type: in vivo; conditions: 0.1% by weight; French bean; 3 days
Aphis fabae = assay: Pest toxicity test; type: in vivo; conditions: 0.1% by weight; broad bean; 2 days
Megoura viceae = assay: Pest toxicity test; type: in vivo; conditions: 0.1% by weight; broad bean; 2 days
[3] = system: Aedes aegypti (mosquito larvae); assay: Pest toxicity test; type: in vivo; conditions: for Mortality grading (kill): 0.01% by weight, water, 1 day; for abnormal growth effects in larva of mosquitos: in vivo
[4] = system: Aedes aegypti (mosquito adults); assay: Pest toxicity test; type: in vivo; conditions: 0.01% by weight; plywood; 1 day
[5] = system: Musca domestica (houseflies); assay: Pest toxicity test, contact test; type: in vivo; conditions: 0.1% by weight; milk/sugar; 2 days; flies sprayed directly
[6] = system: Plutella maculipennis (diamond back moth larvae); assay: Pest toxicity test; type: in vivo
[7] = system: Phaedon cochleariae (mustard beetles); assay: Pest toxicity test; type: in vivo
[8] = system: Agrobacterium tumifaciens; assay: Antibacterial agar test (B1); type: cell-based; conditions: 50 ppm; 5 days
[9] = system: Corynebacterium michiganense; assay: Antibacterial agar test (B2); type: cell-based; conditions: 50 ppm; 5 days
Method: (§1) This Example illustrates the activity of compounds used as the active ingredients of compositions according to the invention against a variety of plant bacterial diseases and fungal post-harvest saprophytic diseases. In a test for such activity, 5 milligrams of the compound to be tested was dissolved or suspended in 10 ml. of acetone and enough of this solution or suspension was added to 18 ml. of nutrient agar (for the bacterial diseases) or 16 ml. of 2% malt agar (for the fungal diseases) to give a final concentration of 50 parts per million of the compound under test. A streptomycin preparation (2 ml. containing 100 units per ml.) was added to the malt agar to prevent bacterial contamination of the fungal tests.
(§2) The agar preparations were dried overnight in Petri dishes and inoculated the following morning with the bacterial or fungal diseases using a multipoint inoculator. The antibacterial activity was assessed after 5 days and the antifungal activity after 6 days. The results of the tests are set out in Table 16 (anti bacterial activity) and Table 17 (antifungal activity). The results are graded as in Example 1 above.

Xanthomonas malvacearum = assay: Antibacterial agar test (B3); type: cell-based; conditions: 50 ppm; 5 days
Method: as §1, §2

Erwinia carotovora = assay: Antibacterial agar test (B4); type: cell-based; conditions: 50 ppm; 5 days
Xanthomonas oryzae = type: cell-based; conditions: 50 ppm; 5 days
Pseudomonas syringae = assay: Antibacterial agar test (B6); type: cell-based; conditions: 50 ppm; 5 days
Streptomyces scabies = assay: Antibacterial agar test (B7); type: cell-based; conditions: 50 ppm; 5 days
[10] = system: Puccinia recondita (wheat); assay: Fungicidal test against foliar disease A (foliage spray plus soil drench); type: in vivo; conditions: 10 days
[11] = system: Phytophthora infestans (tomato); type: in vivo; conditions: 50 ppm spray + 200 ppm soil drench; 3 days
[12] = system: Plasmopara viticola (vine); assay: Fungicidal test against foliar disease C (foliage spray plus soil drench); type: in vivo; conditions: 10 days
Uncinula necator (vine) = assay: Fungicidal test against foliar disease D (foliage spray plus soil drench); type: in vivo; conditions: 10 days
[13] = system: Piricularia oryzae (rice); type: in vivo; conditions: 7 days
[14] = system: Pieris brassicae (cabbage white caterpillars); assay: Pest toxicity test; type: in vivo; conditions: 0.1% by weight, 2 days
[15] = system: Agriolimax reticulatus (slugs); assay: Molluscicidal activity test; type: in vivo, Agriolimax reticulatus (Mull); conditions: pellet with 4% by weight; 6 days; 10°C
Method: A weighed sample of the compound under test was dissolved in 0.5 c.c. of an ethanol and acetone mixture 50:50 v/v). The solution was diluted with 0.5 cc water and poured onto a calf feeding pellet in a glass Petri dish. The pellet was then air dried for 24 hours. The weight of compound used was chosen so that the dried pellet contained 4% by weight of the active ingredient. Two replicates each consisting of a plastic Petri dish containing a pellet, 2 slugs, and a moistened filter paper to maintain a high relative humidity were used in each test. The dishes were left in a cold room (10°C.) After 6 days the kill was assessed.
The slugs used were Agriolimax reticulatus (Mull), and they had been starved for 24 hours before the commencement of the tests.

[16] = 50 ppm spray + 200 ppm soil drench
[17] = 0.1% by weight, mustard/paper, 2 days

With `O=[N+]([O-])c1ccc(Nc2c(Cl)c(F)nc(F)c2Cl)c([N+](=O)[O-])c1` [Compound 1, 3,5-dichloro-2,6-difluoro-4(2,4-dinitroanilinopyridine] the “Mortality grading (kill)” value [1] was 3 (3 represents over 90% kill), the “Mortality grading (kill)” value [2] was 0 (O represents less than 30% kill) and the “Mortality grading (kill)” value (Aphis fabae) was 3 (3 represents over 90% kill). The “Mortality grading (kill)” value (Megoura viceae) was 3 (3 represents over 90% kill), the “Mortality grading (kill)” value [3] was 0 (O represents less than 30% kill) and the “abnormal growth effects in larva of mosquitos” value [3] was “abnormal growth effects”. The “Mortality grading (kill)” value [4] was 2 (2 represents 60 - 90% kill), the “Mortality grading (kill), contact test” value [5] was 0 (O represents less than 30% kill) and the “Mortality grading (kill)” value ([6]; in vivo) was 0 (key: O represents less than 30% kill; 1 represents 30 - 49% kill; 2 represents 60 - 90% kill; 3 represents over 90% kill; C indicates a chemosterilant effect.; A indicates an antifeeding effect.). For the same molecule, the “Mortality grading (kill)” value ([7]; in vivo) was 0 (key: O represents less than 30% kill; 1 represents 30 - 49% kill; 2 represents 60 - 90% kill; 3 represents over 90% kill; C indicates a chemosterilant effect.; A indicates an antifeeding effect.), the “Antibacterial activity grading B1” value [8] was 3 (0 to 5) and the “Antibacterial activity grading B2” value [9] was 3 (0 to 5). For the same molecule, the “Antibacterial activity grading B3” value (Xanthomonas malvacearum) was 3 (0 to 5), the “Antibacterial activity grading B4” value (Erwinia carotovora) was 3 (0 to 5) and the “Antibacterial activity grading B5” value (Xanthomonas oryzae) was 3 (0 to 5). For the same molecule, the “Antibacterial activity grading B6” value (Pseudomonas syringae) was 3 (0 to 5) and the “Antibacterial activity grading B7” value (Streptomyces scabies) was 3 (0 to 5).
With `O=[N+]([O-])c1ccc(Nc2c(Cl)c(Cl)nc(Cl)c2Cl)c([N+](=O)[O-])c1` [Compound 8, Tetrachloro-4(2,4-dinitroanilino)pyridine] the “Amount of disease grading, disease A” value [10, 16] was 0 (61 to 100), the “Amount of disease grading, disease B” value [11] was 3 (0 to 5) and the “Amount of disease grading, disease C” value [12, 16] was 3 (0 to 5). The “Amount of disease grading, disease D” value (Uncinula necator (vine); [16]) was 0 (61 to 100), the “Amount of disease grading, disease E” value [13, 16] was 0 (61 to 100) and the “Mortality grading (kill)” value [1] was 3 (3 represents over 90% kill). For the same molecule, the “Mortality grading (kill)” value [2] was 3 (3 represents over 90% kill), the “Mortality grading (kill)” value (Aphis fabae) was 0 (O represents less than 30% kill) and the “Mortality grading (kill)” value (Megoura viceae) was 0 (O represents less than 30% kill). The “Mortality grading (kill)” value [3] was 0 (O represents less than 30% kill), the “abnormal growth effects in larva of mosquitos” value [3] was “abnormal growth effects” and the “Mortality grading (kill)” value [4] was 0 (O represents less than 30% kill). For the same molecule, the “Mortality grading (kill), contact test” value [5] was 0 (O represents less than 30% kill), the “Mortality grading (kill)” value [14] was 0 (O represents less than 30% kill) and the “Mortality grading (kill)” value ([6]; in vivo) was 0 (key: O represents less than 30% kill; 1 represents 30 - 49% kill; 2 represents 60 - 90% kill; 3 represents over 90% kill; C indicates a chemosterilant effect.; A indicates an antifeeding effect.). For the same molecule, the “Mortality grading (kill)” value ([7]; in vivo) was 0 (key: O represents less than 30% kill; 1 represents 30 - 49% kill; 2 represents 60 - 90% kill; 3 represents over 90% kill; C indicates a chemosterilant effect.; A indicates an antifeeding effect.) and the “% Kill of slugs” value [15] was 100%.
`Fc1nc(F)c(Cl)c(Nc2c(F)c(F)c(F)c3c(F)c(F)c(F)c(F)c23)c1Cl` [Compound 20, 3,5-Dichloro-2,6-difluoro-4(1-heptafluoronaphthylamino)pyridine] was tested, and the “Amount of disease grading, disease A” value ([10]; 100 ppm spray and drench) was 3 (0 to 5), the “Amount of disease grading, disease C” value ([12]; 100 ppm spray and drench) was 3 (0 to 5) and the “Amount of disease grading, disease E” value ([13]; 100 ppm spray and drench) was 2 (6 to 25). For the same molecule, the “Mortality grading (kill)” value [1] was 3 (3 represents over 90% kill), the “Mortality grading (kill)” value [2] was 3 (3 represents over 90% kill) and the “Mortality grading (kill)” value (Aphis fabae) was 2 (2 represents 60 - 90% kill). For the same molecule, the “Mortality grading (kill)” value (Megoura viceae) was 2 (2 represents 60 - 90% kill), the “Mortality grading (kill)” value [3] was 1 (1 represents 30 - 49% kill) and the “Mortality grading (kill)” value [4] was 0 (O represents less than 30% kill). For the same molecule, the “Mortality grading (kill), contact test” value [5] was 0 (O represents less than 30% kill), the “Mortality grading (kill)” value [14] was 0 (O represents less than 30% kill) and the “Mortality grading (kill)” value ([6]; in vivo) was 3 (key: O represents less than 30% kill; 1 represents 30 - 49% kill; 2 represents 60 - 90% kill; 3 represents over 90% kill; C indicates a chemosterilant effect.; A indicates an antifeeding effect.). The “Mortality grading (kill)” value ([7]; in vivo) was 0 (key: O represents less than 30% kill; 1 represents 30 - 49% kill; 2 represents 60 - 90% kill; 3 represents over 90% kill; C indicates a chemosterilant effect.; A indicates an antifeeding effect.), the “Antibacterial activity grading B1” value [8] was 0 (61 to 100) and the “Antibacterial activity grading B2” value [9] was 3 (0 to 5). The “Antibacterial activity grading B3” value (Xanthomonas malvacearum) was 3 (0 to 5), the “Antibacterial activity grading B4” value (Erwinia carotovora) was 2 (6 to 25) and the “Antibacterial activity grading B5” value (Xanthomonas oryzae) was 1 (26 to 60). The “Antibacterial activity grading B6” value (Pseudomonas syringae) was 2 (6 to 25) and the “Antibacterial activity grading B7” value (Streptomyces scabies) was 2 (6 to 25).
In the case of `O=[N+]([O-])c1ccc(Nc2c(Cl)c(Cl)nc(Cl)c2Cl)c(C(F)(F)F)c1` [Compound 41, 4(4-Nitro-2-trifluoromethylanilino)-tetrachloropyridine], the “Amount of disease grading, disease A (Table 4)” value ([10]; 100 ppm spray and drench) is reported as 0 (61 to 100), the “Amount of disease grading, disease C (Table 4)” value ([12]; 100 ppm spray and drench) is reported as 3 (0 to 5) and the “Amount of disease grading, disease D (Table 4)” value (Uncinula necator (vine); 100 ppm spray and drench) is reported as 3 (0 to 5). The “Mortality grading (kill)” value [1] was 3 (3 represents over 90% kill), the “Mortality grading (kill)” value [2] was 3 (3 represents over 90% kill) and the “Mortality grading (kill)” value (Aphis fabae) was 0 (O represents less than 30% kill). For the same molecule, the “Mortality grading (kill)” value (Megoura viceae) was 0 (O represents less than 30% kill), the “Mortality grading (kill)” value [3] was 3 (3 represents over 90% kill) and the “Mortality grading (kill)” value [4] was 0 (O represents less than 30% kill). The “Mortality grading (kill), contact test” value [5] was 2 (2 represents 60 - 90% kill), the “Mortality grading (kill)” value [14] was 0 (O represents less than 30% kill) and the “Mortality grading (kill)” value [6, 17] was 1 (1 represents 30 - 49% kill). The “Mortality grading (kill)” value [7, 17] was 2 (2 represents 60 - 90% kill), the “Antibacterial activity grading B1” value [8] was 3 (0 to 5) and the “Antibacterial activity grading B2” value [9] was 0 (61 to 100). For the same molecule, the “Antibacterial activity grading B3” value (Xanthomonas malvacearum) was 2 (6 to 25), the “Antibacterial activity grading B4” value (Erwinia carotovora) was 1 (26 to 60) and the “Antibacterial activity grading B5” value (Xanthomonas oryzae) was 1 (26 to 60). The “Antibacterial activity grading B6” value (Pseudomonas syringae) was 1 (26 to 60) and the “Antibacterial activity grading B7” value (Streptomyces scabies) was 0 (61 to 100).
